5 molecules from patent US11622556B2, “Re-oiled and hyper-oiled lecithin carrier vehicles” (BIO-UP MIMETIC TECHNOLOGIES, INC., priority 2016, dated 2023) can be followed below.

Test [1] deals with mosquito larvae. Format: in vivo. Conditions: liposomal essential oils in pond water.
The subject of test [2] is Sinorhizobium meliloti. Briefly: Microbial growth in 96-well plate, change in absorbance at 630 nm. Format: cell-based. Conditions: for overall potency order of essential oils: essential oils in de-oiled lecithin liposomes with triglyceride.

On to `C=CCc1ccc(O)c(OC)c1` [eugenol], for which the larvicidal activity order result in test [1] is “thymol>cinnamaldehyde˜d-limonene>citronella˜eugenol>sandalwood oil˜coriander oil˜lavender oil”.
On to `Cc1ccc(C(C)C)c(O)c1` [thymol], for which, in test [1], the larvicidal activity order entry is recorded as “thymol>cinnamaldehyde˜d-limonene>citronella˜eugenol>sandalwood oil˜coriander oil˜lavender oil”.
Turning to `COc1cc(/C=C/C(=O)CC(=O)/C=C/c2ccc(O)c(OC)c2)ccc1O` [diferuloylmethane, reference compound], the “antimicrobial activity of marker label” value in test [2] (in liposome membrane) is listed as “no antimicrobial activity”.
As for `C=C(C)[C@H]1CC=C(C)CC1` [d-limonene], in test [2], the “overall potency order of essential oils” value is “vetiver≈cinnamaldehyde>citronella≈sandalwood≈bayleaf≈patchouli≈rosewood>linalool≈d-limonene”. In test [1], the larvicidal activity order result is listed as “thymol>cinnamaldehyde˜d-limonene>citronella˜eugenol>sandalwood oil˜coriander oil˜lavender oil”.
On to `O=CC=Cc1ccccc1` [cinnamaldehyde], for which the “overall potency order of essential oils” value in test [2] is given as “vetiver≈cinnamaldehyde>citronella≈sandalwood≈bayleaf≈patchouli≈rosewood>linalool≈d-limonene”. In addition, in test [2] (liposomes with 0, 20 or 45 wt % triglyceride, particularly notable at 45%), the “activity as a single agent” value is recorded as “greater activity than citronella”. Moreover, the larvicidal activity order result in test [1] is recorded as “thymol>cinnamaldehyde˜d-limonene>citronella˜eugenol>sandalwood oil˜coriander oil˜lavender oil”.
